Consider 3 compounds from patent publication US12390467B2, “Necroptosis inducers or autophagy inhibitors or a combination thereof” (The University of Toledo, priority 2018, dated 2025).

What all share (format): cell-based
Data set [1] has as its system MDA-MB231 (TNBC cell line). The data set is described as follows: MTT cell viability assay, MDA-MB231. The following applies: Homo sapiens, MDA-MB-231, 72 h, read-out: IC50 ± SD, MDA-MB231. As to the method: (§1) The following cancer and non-cancer cell lines were used in the initial cytotoxicity screening of the TPH104 compounds: triple negative breast cancer (TNBC): MDA-MB468, MDA-MB 231, and BT-20; non-TNBC: MCF-7 and ZR-75-1; ovarian: Ov2008; prostate: DU145; colon: HCT-116, S1, and LOVO; lung: H460; normal kidney: HEK-293; normal breast: HMEC; and normal colon: CRL-1459. All cells were cultured in Dulbecco's modified Eagle medium (DMEM), supplemented with 10% fetal bovine serum (FBS), and 1% penicillin/streptomycin (P/S). Cells were allowed to grow as adherent monolayers in T25 flasks in a humidified incubator with 5% CO2 at 37° C. for a period of 24 h, unless otherwise specified for certain experiments.
(§2) The MTT assay was used to determine the cytotoxicity of all of the compounds. Briefly, in a 96-well flat-bottom cell culture plate, the cells were seeded at a density between 3-5×10^3 cells/well (180 μl in each well) and incubated for 24 h (a hemocytometer was used for cell counting). The next day, the cells were incubated with different concentrations of the nine compounds (0, 0.1, 0.3, 1, 3, 10, 30, and 100 μM) for 72 h. After 72 h, 20 μl of 5 mg/ml of 3-(4,5-dimethylthiazol-2-yl)-2,5-diphenyltetrazolium bromide (MTT) was added to the plate and incubated with the cells for 3 h at 37° C. In this experiment, the living cells will reduce the soluble MTT dye to non-soluble purple formazan crystals. Following incubation, the media containing MTT removed via suction and 100 μL of 100% dimethyl sulfoxide (DMSO) was added to dissolve the formazan crystals. Subsequently, the plate was shaken for 2 minutes and the absorbance was measured at a wavelength of 570 nm using a SpectraMax iD3 Multi-Mode Microplate Reader (Molecular Devices, Sunnyvale, CA). The IC50 values of each compound were calculated and used to determine the selectivity ratio (IC50 in normal cells/IC50 in cancer cells) of each compound as previously described. Based on the results obtained from these experiments, the compound TPH104, which had the lowest IC50 value, was selected for further experiments.
On the technique in general: Formazan colour is commonly taken as a measure of viable cells.

Data set [2] concerns ZR-75-1 (non-TNBC cell line). In words: MTT cell viability assay, ZR-75-1. The note with it: Homo sapiens, ZR-75-1, 72 h, read-out: IC50 ± SD, ZR-75-1. As to the method: as §1, §2
The target in data set [3] is T1, BCRP (ABCG2), MCF-7 M100 breast cancer cells (Homo sapiens, UniProt Q9UNQ0).
T1 construct: endogenous in cells; host or cells: MCF-7 M100 breast cancer cells
In words: Hoechst 33342 assay for BCRP modulation. The following applies: concentration dependent. The method, then:
Ability of BCRP to efflux nuclear stain Hoechst 33342 was used to identify the molecules which interfere with BCRP transporter activity. About 14000 cells of MCF-7 M100 breast cancer cells were seeded in each well in 96 well plates and allowed to grow until confluency for 4-5 days. Then media was replaced with phenol red free RPMI media and cells were treated with indicated concentrations of TPH104s and 5 μg/mL of Hoechst 33342. Fluorescence measured after 60 minutes with excitation at 361/20 nm and at emission 497/20 nm using the BioTek Cytation 5 imaging multi-mode reader (Bio-Tek, Winooski, VT). DMSO (0.5% v/v) was used as the vehicle, and 0.5 μM of BCRP inhibitor, Ko143 was used as a positive control and 15 μM of P-gp modulator, verapamil was used as negative control.

The subject of a further data set is TNBC cell lines. The data set is described as follows: Cytotoxicity screening (MTT), TNBC cell lines overall. The following applies: classification of Table 1 cytotoxicity data.
Description: To this end, several commercial databases were searched, and 17 similar molecules from the VitasM database were retrieved with considerable structural diversity in terms of the substitution on the aryl ring A attached to the thienopyrimidine scaffold and aryl ring B attached to hydrazino moiety. Further, the biological evaluation of the 17 molecules sheds light on the structural features deemed important for the selective cytotoxicity shown by this class of molecules. With this understanding, the 17 molecules were subjected to a screening protocol comprising of two TNBC, two non-TNBC, and one normal cell lines.
as §1, §2

Data set [4] concerns MDA-MB468 (TNBC cell line). The data set is described as follows: MTT cell viability assay, MDA-MB468. The following applies: Homo sapiens, MDA-MB-468, 72 h, read-out: IC50 ± SD, MDA-MB468. As to the method: as §1, §2
In data set [5] the test system is MCF-7 (non-TNBC cell line). In words: MTT cell viability assay, MCF-7. The following applies: Homo sapiens, MCF7, 72 h, read-out: IC50 ± SD, MCF-7. The method, then:
as §1, §2

Data set [6] concerns the target T2, P-gp (ABCB1), DU145TXR prostate cancer cells (Homo sapiens, UniProt P08183).
T2 construct: endogenous in cells; host or cells: DU145TXR prostate cancer cells
In words: Calcein AM assay for P-gp modulation. The note with it: concentration dependent. As to the method:
Ability of P-gp to efflux Calcein AM is used to identify the molecules which interfere with P-gp transporter activity. About 10000 cells of DU145TXR prostate cancer cells were seeded in each well in 96 well plates and allowed to grow until confluency for 4-5 days. Then media was replaced with phenol red free RPMI media and cells were treated with indicated concentrations of TPH104s and 1 μg/mL of Calcein AM. Fluorescence measured after 60 minutes with excitation at 485/20 nm and at emission 535/20 nm using the BioTek Cytation 5 imaging multi-mode reader (Bio-Tek, Winooski, VT). DMSO (0.5% v/v) was used as the vehicle, and 15 μM of Pgp inhibitor SMU 45 was used as a positive control. (n=6 in each trial).

Data set [7] relates to normal human mammary epithelial cells (HMEC). In words: MTT cell viability assay, HMEC. The following applies: Homo sapiens, HMEC; MTT, 72 h; Normal; read-out: IC50 ± SD, HMEC. The method, then: as §1, §2
For the next data set, the system named is BT-20 cells. In words: Acridine orange assay. The following applies: 20 μM, 12 h, vs vehicle. As to the method:
The cell-permeant, nucleic acid binding dye, acridine orange (AO) was used to assess the effect of TPH104 on the activation of lysosomes. A 10 μg/ml stock solution was prepared using PBS. The TNBC cells were seeded in a 6-well plate as described in the cell cycle assay. After overnight incubation, cells were incubated with TPH104 (1, 2, 5 μM), vehicle or 20 uM of chloroquine (CQ, […]) for 12 h. The media was removed via suction and 1 ml of AO, diluted in 1:1000 in PBS, was added to each well and the plate was incubated for an additional 30 minutes. Cells were washed three times in PBS to remove excess dye. The cells from each well were captured from randomly selected fields using a fluorescent microscope (EVOS-FLC cell imaging system, Thermofisher scientific) at 40× to determine the AO fluorescence intensity which is positively correlated to lysosomal activation.

The test system of the next data set is BT-20 or MDA-MB468 cells. In words: Cellular reactive oxygen species (ROS) detection assay (H2DCFDA). The note with it: 2 μM. The method, then:
To assess the effect of TPH104 on the generation of ROS, a cell permeant, fluorogenic dye, 2′,7′-dichlorofluorescin diacetate, H2DCFDA, was used. A 5 mM stock solution was prepared using DMSO and PBS was used to prepare the 3 μM working solution of H2DCFDA. The TNBC cells were seeded in a 6-well plate as described in the cell cycle assay. After overnight incubation, cells were incubated with different TPH104 (1, 2, 5 μM) or vehicle for 12 h or with 2 μM of paclitaxel (positive control) for 2 h. The H2DCFDA dye (3 μM) was added to each well and the plate was incubated for an additional 30 minutes. Subsequently, cells were washed 3 times in PBS to remove excess H2DCFDA dye. Thereafter, cells from each well were captured from randomly selected fields using a fluorescent microscope (EVOS-FLC cell imaging system, Thermofisher scientific) at 40× to determine the 2′,7′-dichlorofluorescein (DCF) fluorescence intensity, which is positively correlated with the generation of ROS.

T2 sequence (P08183 whole entry): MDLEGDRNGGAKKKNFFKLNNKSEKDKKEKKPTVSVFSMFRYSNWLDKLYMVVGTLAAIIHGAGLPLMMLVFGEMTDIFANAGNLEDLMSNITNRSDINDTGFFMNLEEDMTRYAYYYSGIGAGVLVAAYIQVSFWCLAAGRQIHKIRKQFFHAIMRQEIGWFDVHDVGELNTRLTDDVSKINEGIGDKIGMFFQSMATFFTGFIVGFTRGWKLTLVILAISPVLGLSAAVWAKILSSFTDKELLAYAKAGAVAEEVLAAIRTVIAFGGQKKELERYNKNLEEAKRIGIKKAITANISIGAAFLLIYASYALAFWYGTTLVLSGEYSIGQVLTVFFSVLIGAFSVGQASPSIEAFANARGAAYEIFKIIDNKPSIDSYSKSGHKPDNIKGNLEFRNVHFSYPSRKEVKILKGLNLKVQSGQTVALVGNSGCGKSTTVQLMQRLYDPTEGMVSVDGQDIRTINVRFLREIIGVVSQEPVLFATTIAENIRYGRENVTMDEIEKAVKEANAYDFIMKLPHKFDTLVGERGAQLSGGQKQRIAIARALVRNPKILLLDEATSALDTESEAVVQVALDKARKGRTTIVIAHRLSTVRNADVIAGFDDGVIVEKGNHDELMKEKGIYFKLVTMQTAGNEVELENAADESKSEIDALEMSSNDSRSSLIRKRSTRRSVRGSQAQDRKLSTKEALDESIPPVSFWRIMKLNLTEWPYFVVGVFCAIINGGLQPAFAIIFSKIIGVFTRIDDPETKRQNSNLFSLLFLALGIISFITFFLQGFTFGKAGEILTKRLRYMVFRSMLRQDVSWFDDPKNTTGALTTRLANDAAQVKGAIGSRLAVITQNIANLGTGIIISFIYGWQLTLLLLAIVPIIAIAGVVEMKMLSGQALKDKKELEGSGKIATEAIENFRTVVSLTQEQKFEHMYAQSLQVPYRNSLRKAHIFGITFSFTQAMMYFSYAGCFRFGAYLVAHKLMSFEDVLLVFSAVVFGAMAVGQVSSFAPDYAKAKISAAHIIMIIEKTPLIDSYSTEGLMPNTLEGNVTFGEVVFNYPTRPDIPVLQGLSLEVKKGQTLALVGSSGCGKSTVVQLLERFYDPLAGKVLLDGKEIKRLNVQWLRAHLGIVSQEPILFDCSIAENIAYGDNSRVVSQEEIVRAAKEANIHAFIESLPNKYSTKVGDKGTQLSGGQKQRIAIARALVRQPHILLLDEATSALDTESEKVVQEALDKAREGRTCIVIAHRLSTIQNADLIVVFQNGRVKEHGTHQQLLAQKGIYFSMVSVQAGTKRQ
T1 sequence (Q9UNQ0 whole entry): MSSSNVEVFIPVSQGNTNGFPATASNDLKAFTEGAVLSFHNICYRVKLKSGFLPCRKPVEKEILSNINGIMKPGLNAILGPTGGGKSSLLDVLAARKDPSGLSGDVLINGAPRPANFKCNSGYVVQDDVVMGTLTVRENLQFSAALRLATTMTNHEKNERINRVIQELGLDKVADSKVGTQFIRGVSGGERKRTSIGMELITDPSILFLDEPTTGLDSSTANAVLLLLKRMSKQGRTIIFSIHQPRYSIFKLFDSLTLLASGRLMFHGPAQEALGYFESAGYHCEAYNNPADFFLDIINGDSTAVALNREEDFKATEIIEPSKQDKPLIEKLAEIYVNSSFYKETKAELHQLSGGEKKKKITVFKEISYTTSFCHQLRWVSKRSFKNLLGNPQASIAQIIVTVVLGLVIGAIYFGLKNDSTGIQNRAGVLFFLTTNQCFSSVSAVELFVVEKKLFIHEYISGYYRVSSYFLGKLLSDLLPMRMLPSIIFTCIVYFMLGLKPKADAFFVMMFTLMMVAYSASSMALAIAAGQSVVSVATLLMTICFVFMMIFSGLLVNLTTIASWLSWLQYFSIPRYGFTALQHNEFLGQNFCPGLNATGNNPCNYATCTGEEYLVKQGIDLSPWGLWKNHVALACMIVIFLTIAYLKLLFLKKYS

For orientation: IC50 means the midpoint of a concentration-inhibition curve. Take `Cc1ccc(-c2csc3ncnc(N/N=C/c4ccc(Br)cc4O)c23)cc1` [TPH104m]: the IC50 in data set [1] was 440 ± 210 nM; in [2], greater than 100000 nM; in [4], 290 ± 10 nM; in data set [5], 2730 ± 1020 nM; in data set [7] it was greater than 100000 nM. Moreover, the “efflux function of ABCG2” value in [3] was “blocking the efflux function”. Also, in the data set on TNBC cell lines, the “potency compared to TPH104” value is “comparable potency to that of TPH104”. Moreover, in data set [6], the “efflux function of ABCB1” value is reported as “blocking the efflux function”.
With `CCN(CC)CCCC(C)Nc1ccnc2cc(Cl)ccc12` (stereo not shown) [chloroquine, reference compound], in the data set on BT-20 cells, the “AO fluorescence intensity, negative control” value is “no significant change”.
On to `CC(=O)O[C@H]1C(=O)[C@@]2(C)[C@H]([C@H](OC(=O)c3ccccc3)[C@]3(O)C[C@H](OC(=O)[C@H](O)[C@@H](NC(=O)c4ccccc4)c4ccccc4)C(C)=C1C3(C)C)[C@]1(OC(C)=O)CO[C@@H]1C[C@@H]2O` [paclitaxel, reference compound], for which the “DCF fluorescence (ROS), positive control” value with BT-20 or MDA-MB468 cells is reported as “significantly increased”.
